Results reported in patent US10918742B2, “Iodine-based particles” (Nanoprobes, Inc., priority 2016, dated 2021).

Assays:
[1] = microCT comparison with commercially available agent (kidney, lung); type: in vivo, mouse
Method: A mouse was injected with a standard iodine contrast agent at an effective dose of 2.5 g iodine/kg.
A mouse was injected with a standard iodine contrast agent at an effective dose of 1.75 g iodine/kg.

[2] = mice, acute dose; cited from earlier work

CC(=O)N(CC(O)CO)c1c(I)c(C(=O)NCC(O)CO)c(I)c(C(=O)NCC(O)CO)c1I (stereo not drawn) [Iohexol, 5-(N-2,3-Dihydroxypropylacetamido)-2,4,6-triiodo-N,N′-bis(2,3-dihydroxypropyl)isophthalamide]
microCT of lung region ([1]; 30 minutes after injection, 1.75 g iodine/kg): no clear visualization of any vasculature
microCT of kidney region ([1]; two minutes after injection, Example 1 at 1.75 g iodine/kg, standard agent at 2.5 g iodine/kg): the iodine has rapidly entered the kidneys and is being quickly removed from the blood
intravenous LD50 [2]: 24.2 g iodine/kg
